Measured values taken from ChEMBL document CHEMBL4152224, “The Identification of Potent, Selective, and Orally Available Inhibitors of Ataxia Telangiectasia Mutated (ATM) Kinase: The Discovery of AZD0156 (8-{6-[3-(Dimethylamino)propoxy]pyridin-3-yl}-3-methyl-1-(tetrahydro-2 H-pyran-4-yl)-1,3-dihydro-2 H-imidazo[4,5- c]quinolin-2-one)” (J Med Chem, 2018).

How the values were obtained:
[1] = target: T1, Serine-protein kinase ATM (Homo sapiens, UniProt Q13315); experiment: Inhibition of ATM derived from human HeLa cell nuclear extract using glutathione S-transferase p53N66 as substrate preincubated for 10 mins followed by ATP addition and subsequent incubation for 1 hr measured after 1.5 hrs by ELISA
T1 sequence (Q13315 whole entry): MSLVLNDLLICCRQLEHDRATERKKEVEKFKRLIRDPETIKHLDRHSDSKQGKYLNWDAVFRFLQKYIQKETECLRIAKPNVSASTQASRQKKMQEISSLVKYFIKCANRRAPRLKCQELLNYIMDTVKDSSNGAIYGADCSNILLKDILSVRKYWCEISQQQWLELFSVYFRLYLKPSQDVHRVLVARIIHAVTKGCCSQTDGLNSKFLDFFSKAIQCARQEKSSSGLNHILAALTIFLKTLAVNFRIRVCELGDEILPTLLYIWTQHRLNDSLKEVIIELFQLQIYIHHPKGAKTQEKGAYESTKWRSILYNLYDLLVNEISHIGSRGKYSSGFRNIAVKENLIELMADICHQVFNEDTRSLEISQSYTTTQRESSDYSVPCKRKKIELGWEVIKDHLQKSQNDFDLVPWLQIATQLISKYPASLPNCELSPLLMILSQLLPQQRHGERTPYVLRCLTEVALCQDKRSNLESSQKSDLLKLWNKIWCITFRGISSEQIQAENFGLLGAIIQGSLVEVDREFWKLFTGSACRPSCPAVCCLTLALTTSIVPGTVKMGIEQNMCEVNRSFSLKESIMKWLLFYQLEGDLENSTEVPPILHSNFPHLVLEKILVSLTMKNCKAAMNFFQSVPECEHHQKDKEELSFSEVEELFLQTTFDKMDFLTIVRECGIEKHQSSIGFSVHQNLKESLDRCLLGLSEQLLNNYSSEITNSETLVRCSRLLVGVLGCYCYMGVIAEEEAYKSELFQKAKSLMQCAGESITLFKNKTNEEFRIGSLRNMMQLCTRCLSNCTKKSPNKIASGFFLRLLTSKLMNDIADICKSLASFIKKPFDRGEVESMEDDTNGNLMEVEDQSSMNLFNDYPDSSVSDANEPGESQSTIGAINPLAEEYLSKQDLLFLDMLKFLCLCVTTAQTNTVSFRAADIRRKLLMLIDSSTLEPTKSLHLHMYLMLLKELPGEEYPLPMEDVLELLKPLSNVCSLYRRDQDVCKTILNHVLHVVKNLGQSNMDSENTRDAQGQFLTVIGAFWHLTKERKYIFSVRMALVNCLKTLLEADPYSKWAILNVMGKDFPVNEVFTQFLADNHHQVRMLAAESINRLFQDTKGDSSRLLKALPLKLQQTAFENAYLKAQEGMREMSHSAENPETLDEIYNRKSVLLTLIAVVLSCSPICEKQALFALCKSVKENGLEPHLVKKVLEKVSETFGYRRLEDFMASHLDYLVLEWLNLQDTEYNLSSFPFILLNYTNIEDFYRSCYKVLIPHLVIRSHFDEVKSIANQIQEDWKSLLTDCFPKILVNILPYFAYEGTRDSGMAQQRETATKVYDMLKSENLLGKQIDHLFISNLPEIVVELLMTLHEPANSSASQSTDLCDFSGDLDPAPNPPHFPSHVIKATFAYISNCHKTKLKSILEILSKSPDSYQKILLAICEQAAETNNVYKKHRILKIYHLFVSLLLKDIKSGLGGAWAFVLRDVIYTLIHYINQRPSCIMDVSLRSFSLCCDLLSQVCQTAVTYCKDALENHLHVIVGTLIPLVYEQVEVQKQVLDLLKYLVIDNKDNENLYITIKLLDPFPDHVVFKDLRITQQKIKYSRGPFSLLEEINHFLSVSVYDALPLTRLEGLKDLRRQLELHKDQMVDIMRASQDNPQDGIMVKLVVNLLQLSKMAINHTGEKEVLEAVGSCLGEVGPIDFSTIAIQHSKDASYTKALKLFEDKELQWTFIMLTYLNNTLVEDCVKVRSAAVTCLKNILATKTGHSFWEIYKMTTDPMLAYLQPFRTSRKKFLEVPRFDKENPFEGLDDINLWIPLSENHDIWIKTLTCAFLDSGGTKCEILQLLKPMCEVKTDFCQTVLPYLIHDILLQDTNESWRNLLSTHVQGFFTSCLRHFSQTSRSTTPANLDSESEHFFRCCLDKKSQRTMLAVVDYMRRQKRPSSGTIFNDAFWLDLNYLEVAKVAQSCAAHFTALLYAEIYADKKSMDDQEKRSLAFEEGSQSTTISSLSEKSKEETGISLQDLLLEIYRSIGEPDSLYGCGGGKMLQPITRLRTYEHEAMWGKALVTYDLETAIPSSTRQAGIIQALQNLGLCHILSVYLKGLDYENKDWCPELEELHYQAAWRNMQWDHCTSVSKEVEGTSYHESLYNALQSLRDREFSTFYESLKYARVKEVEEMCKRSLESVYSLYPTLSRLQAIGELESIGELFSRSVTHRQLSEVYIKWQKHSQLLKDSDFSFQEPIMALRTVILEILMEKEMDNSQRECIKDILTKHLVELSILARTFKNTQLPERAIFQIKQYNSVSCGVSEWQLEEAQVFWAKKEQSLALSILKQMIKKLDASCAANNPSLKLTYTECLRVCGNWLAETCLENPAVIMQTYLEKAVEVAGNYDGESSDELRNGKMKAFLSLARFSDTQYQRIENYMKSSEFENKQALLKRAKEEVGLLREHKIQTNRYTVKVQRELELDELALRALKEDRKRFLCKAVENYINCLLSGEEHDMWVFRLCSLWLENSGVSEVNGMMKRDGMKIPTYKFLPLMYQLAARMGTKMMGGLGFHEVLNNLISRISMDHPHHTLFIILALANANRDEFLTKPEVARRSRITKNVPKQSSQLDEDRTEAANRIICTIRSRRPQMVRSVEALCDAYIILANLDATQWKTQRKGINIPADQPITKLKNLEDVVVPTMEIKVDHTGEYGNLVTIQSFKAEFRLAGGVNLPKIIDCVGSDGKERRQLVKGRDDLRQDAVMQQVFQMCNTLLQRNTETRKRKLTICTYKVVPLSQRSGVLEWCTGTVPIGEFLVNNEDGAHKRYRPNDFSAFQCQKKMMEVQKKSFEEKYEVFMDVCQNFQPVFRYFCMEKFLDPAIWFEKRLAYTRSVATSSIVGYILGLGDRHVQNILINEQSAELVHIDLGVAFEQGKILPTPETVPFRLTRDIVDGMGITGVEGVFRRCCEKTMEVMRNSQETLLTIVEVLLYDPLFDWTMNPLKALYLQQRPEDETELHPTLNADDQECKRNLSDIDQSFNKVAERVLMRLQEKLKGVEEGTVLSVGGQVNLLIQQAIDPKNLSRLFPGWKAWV

Homo sapiens [2] = species: Homo sapiens; experiment: Selectivity ratio of IC50 for ATR derived from human HeLa cell cytoplasmic extract to IC50 for ATM derived from human HeLa cell nuclear extract
Homo sapiens [3] = species: Homo sapiens; experiment: Selectivity ratio of IC50 for DNA-PK derived from human HeLa cells to IC50 for ATM derived from human HeLa cell nuclear extract
Homo sapiens [4] = species: Homo sapiens; experiment: Selectivity ratio of IC50 for mTOR derived from human HeLa cells to IC50 for ATM derived from human HeLa cell nuclear extract
Homo sapiens [5] = species: Homo sapiens; experiment: Selectivity ratio of IC50 for PI3K derived from human HeLa cells to IC50 for ATM derived from human HeLa cell nuclear extract
[6] = Buffer/octanol partition coefficient, log D of the compound at pH 7.4 by shake flask method; format: physicochemical
[7] = Thermodynamic solubility of the compound in 0.1M aqueous phosphate buffer at pH 7.4 after 24 hrs by LC-UV analysis; format: physicochemical; conditions: read-out: Therm_solubility
[8] = Intrinsic clearance in human hepatocytes assessed per million cells
[9] = Intrinsic clearance in rat hepatocytes assessed per million cells
[10] = target: Voltage-gated inwardly rectifying potassium channel KCNH2 (Homo sapiens, UniProt Q12809); experiment: Inhibition of human ERG by electrophysiology assay
Chain of Voltage-gated inwardly rectifying potassium channel KCNH2 (Q12809 whole entry): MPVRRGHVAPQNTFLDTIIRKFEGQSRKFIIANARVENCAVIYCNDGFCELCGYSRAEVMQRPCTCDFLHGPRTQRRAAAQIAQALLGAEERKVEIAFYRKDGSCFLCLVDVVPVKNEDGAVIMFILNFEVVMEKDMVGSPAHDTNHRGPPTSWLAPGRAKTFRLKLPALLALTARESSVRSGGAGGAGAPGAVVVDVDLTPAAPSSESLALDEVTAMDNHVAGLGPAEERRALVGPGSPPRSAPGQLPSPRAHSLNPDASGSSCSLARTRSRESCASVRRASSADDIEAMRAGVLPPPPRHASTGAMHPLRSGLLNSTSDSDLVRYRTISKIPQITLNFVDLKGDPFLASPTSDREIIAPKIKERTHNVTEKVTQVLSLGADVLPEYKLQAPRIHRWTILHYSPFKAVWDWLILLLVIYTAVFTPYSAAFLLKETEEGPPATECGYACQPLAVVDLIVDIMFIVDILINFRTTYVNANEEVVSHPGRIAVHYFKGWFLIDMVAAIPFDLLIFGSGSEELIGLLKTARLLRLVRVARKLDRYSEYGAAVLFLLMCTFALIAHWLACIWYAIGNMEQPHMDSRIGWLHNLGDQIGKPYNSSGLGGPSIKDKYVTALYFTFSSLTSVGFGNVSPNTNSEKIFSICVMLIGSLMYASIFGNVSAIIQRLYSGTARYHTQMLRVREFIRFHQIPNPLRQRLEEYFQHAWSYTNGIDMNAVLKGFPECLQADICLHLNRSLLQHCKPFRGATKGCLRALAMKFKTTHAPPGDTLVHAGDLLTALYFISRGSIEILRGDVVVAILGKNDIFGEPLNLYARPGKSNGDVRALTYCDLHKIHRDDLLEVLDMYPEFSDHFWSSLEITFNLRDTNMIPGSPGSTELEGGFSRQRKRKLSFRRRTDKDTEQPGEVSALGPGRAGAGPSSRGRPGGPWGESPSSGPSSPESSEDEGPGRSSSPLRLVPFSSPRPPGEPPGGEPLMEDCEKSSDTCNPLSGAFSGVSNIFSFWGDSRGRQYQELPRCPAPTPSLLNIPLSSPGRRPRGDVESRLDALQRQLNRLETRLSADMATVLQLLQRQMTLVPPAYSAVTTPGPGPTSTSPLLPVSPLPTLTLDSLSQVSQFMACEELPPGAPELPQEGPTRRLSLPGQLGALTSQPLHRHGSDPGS

[11] = Apparent permeability across apical to basolateral side in MDCK cells overexpressing MDR1; format: ADME, cell-based, Canis lupus familiaris; conditions: dog
[12] = Dissociation constant, pKa of the compound; format: physicochemical
[13] = target: T1, Serine-protein kinase ATM
[14] = target: Serine/threonine-protein kinase ATR (Homo sapiens, UniProt Q13535)
in vitro = conditions: dog, MDCK-MDR1
Description: Efflux ratio of apparent permeability across basolateral to apical over apical to basolateral side in MDCK cells overexpressing MDR1

| IC50 [1] [µM] | Ratio IC50 (Homo sapiens [2]) | Ratio IC50 (Homo sapiens [3]) | Ratio IC50 (Homo sapiens [4]) | Ratio IC50 (Homo sapiens [5]) | logD [6] | solubility thermodynamic at 24 h [7] [µM] | hepatocyte CLint [8] [µL/min/1e6 cells] | hepatocyte CLint [9] [µL/min/1e6 cells] | Papp A→B [11] [×10⁻⁶ cm/s] | pKa [12] | IC50 [13] [µM] | IC50 [14] [µM] | efflux ratio (in vitro) | SMILES | IC50 [10] [µM] |
| --- | --- | --- | --- | --- | --- | --- | --- | --- | --- | --- | --- | --- | --- | --- | --- |
| 0.003 | > 300 | > 300 | > 300 | > 300 |  |  |  |  |  |  |  |  |  | CN1CCN(CCC(=O)Nc2ccc3c(c2)Sc2cccc(-c4cc(=O)cc(N5CCOCC5)o4)c2S3)CC1 |  |
|  |  |  |  |  | 2 | > 1000 | 8.3 | 12 | 16 | 8.5 | 0.023 | > 30 | 1.6 | CO[C@H]1C[C@@H](n2c(=O)n(C)c3cnc4cc(F)c(-c5ccc(OCCN(C)C)nc5)cc4c32)C1 | > 33 |
